Reference: PubChem BioAssay AID624167 (Sanford-Burnham Center for Chemical Genomics, 2012)
Each block holds one molecule with its values, some of them ahead of it. Activity calls are given as the source filed them.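 How the source made its calls: active means mean IC50 for reducing PEG3 promoter reporter signal at or below a set limit, with IC50 above the limit in both counter screens; inactive means the rest, including counter screen hits.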

Columns and labels:
Assay in all cases: inhibition of PEG-3 promoter-driven reporter – cell-based, HeLa, luciferase, CREF/GAPDH counter-screen panel, dose response (AID 624167)
PEG-3 [1] = conditions: HeLa PEG-Prom luciferase reporter, overnight, CREF/GAPDH counter-screens
PEG-3 [2] = target: PEG-3 (UniProt Q6IN02); conditions: HeLa PEG-Prom luciferase reporter, overnight, CREF/GAPDH counter-screens, mean of runs
Chain of PEG-3 (UniProt Q6IN02) (Q6IN02 whole entry, looked up): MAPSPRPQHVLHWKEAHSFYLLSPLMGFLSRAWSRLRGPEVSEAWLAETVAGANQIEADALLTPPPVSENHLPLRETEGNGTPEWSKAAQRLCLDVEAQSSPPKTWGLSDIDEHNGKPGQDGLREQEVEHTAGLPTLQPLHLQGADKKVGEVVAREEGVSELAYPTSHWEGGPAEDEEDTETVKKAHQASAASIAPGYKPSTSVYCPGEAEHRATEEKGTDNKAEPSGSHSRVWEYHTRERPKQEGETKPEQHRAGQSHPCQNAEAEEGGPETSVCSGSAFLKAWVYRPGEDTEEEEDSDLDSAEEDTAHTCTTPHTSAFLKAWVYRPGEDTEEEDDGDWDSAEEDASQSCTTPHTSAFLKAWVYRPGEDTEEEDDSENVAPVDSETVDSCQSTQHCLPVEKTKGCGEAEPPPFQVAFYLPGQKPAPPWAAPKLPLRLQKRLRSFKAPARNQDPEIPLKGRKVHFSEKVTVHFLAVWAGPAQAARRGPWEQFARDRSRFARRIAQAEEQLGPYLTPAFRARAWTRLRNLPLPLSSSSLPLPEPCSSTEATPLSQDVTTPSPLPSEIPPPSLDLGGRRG

Rat fibroblasts (CREF) = conditions: CREF/GAPDH counter-screens
[3] = run 1, dose range 1, individual replicate IC50 per panel
[4] = run 2, dose range 1, individual replicate IC50 per panel

Compound: Clc1cccc(-c2nc(-c3ccccn3)no2)c1
- IC50 (PEG-3 [1]; [3]): 3680 nM
- IC50 (PEG-3 [1]; [4]): 5920 nM
- IC50 (PEG-3 [2]): 4800 nM
- IC50 (Rat fibroblasts (CREF); mean of runs): 2230 nM
- IC50 (Rat fibroblasts (CREF); [3]): 1820 nM
- IC50 (Rat fibroblasts (CREF); [4]): 2630 nM

Compound: O=C(Nc1nc2cc3c(cc2s1)OCCO3)c1ccco1
- IC50 (PEG-3 [1]; [3]): 1750 nM
- IC50 (PEG-3 [1]; [4]): 2220 nM
- IC50 (PEG-3 [2]): 1980 nM
- IC50 (Rat fibroblasts (CREF); mean of runs): 1480 nM
- IC50 (Rat fibroblasts (CREF); [3]): 766 nM
- IC50 (Rat fibroblasts (CREF); [4]): 2200 nM

Compound: CC1CCN(c2ccc(-c3cccc(NC(=O)C(F)(F)F)c3)nn2)CC1
- IC50 (PEG-3 [1]; [3]): 1840 nM
- IC50 (PEG-3 [1]; [4]): 2370 nM
- IC50 (PEG-3 [2]): 2110 nM
- IC50 (Rat fibroblasts (CREF); mean of runs): 853 nM
- IC50 (Rat fibroblasts (CREF); [3]): 869 nM
- IC50 (Rat fibroblasts (CREF); [4]): 837 nM

Compound: C(=NN1CCCCCC1)c1ccc2ccccc2n1
- IC50 (PEG-3 [1]; [3]): 3590 nM
- IC50 (PEG-3 [1]; [4]): > 100000 nM
- IC50 (PEG-3 [2]): inactive
- IC50 (Rat fibroblasts (CREF); mean of runs): 2580 nM
- IC50 (Rat fibroblasts (CREF); [3]): 2120 nM
- IC50 (Rat fibroblasts (CREF); [4]): 3040 nM

Compound: O=C1c2cccc3cc([N+](=O)[O-])cc(c23)C(=O)N1CCN1CCCC1
- IC50 (PEG-3 [1]; [3]): 6200 nM
- IC50 (PEG-3 [1]; [4]): 4940 nM
- IC50 (PEG-3 [2]): 5570 nM
- IC50 (Rat fibroblasts (CREF); mean of runs): 4660 nM
- IC50 (Rat fibroblasts (CREF); [3]): 4170 nM
- IC50 (Rat fibroblasts (CREF); [4]): 5150 nM

Compound: NC1=C(Br)C(=O)c2ncccc2C1=O
- IC50 (PEG-3 [1]; [3]): 3310 nM
- IC50 (PEG-3 [1]; [4]): 2900 nM
- IC50 (PEG-3 [2]): 3100 nM
- IC50 (Rat fibroblasts (CREF); mean of runs): 2200 nM
- IC50 (Rat fibroblasts (CREF); [3]): 2190 nM
- IC50 (Rat fibroblasts (CREF); [4]): 2200 nM

Compound: O=c1oc2ccccc2cc1-c1cn2ccccc2n1
- IC50 (PEG-3 [1]; [3]): 2310 nM
- IC50 (PEG-3 [1]; [4]): 3170 nM
- IC50 (PEG-3 [2]): 2740 nM
- IC50 (Rat fibroblasts (CREF); mean of runs): 4470 nM
- IC50 (Rat fibroblasts (CREF); [3]): 2840 nM
- IC50 (Rat fibroblasts (CREF); [4]): 6100 nM

Compound: C/C(=N/NC(=O)c1cc(C2CC2)[nH]n1)c1cccs1
- IC50 (PEG-3 [1]; [3]): 5930 nM
- IC50 (PEG-3 [1]; [4]): 7690 nM
- IC50 (PEG-3 [2]): 6810 nM
- IC50 (Rat fibroblasts (CREF); mean of runs): 3840 nM
- IC50 (Rat fibroblasts (CREF); [3]): 3850 nM
- IC50 (Rat fibroblasts (CREF); [4]): 3830 nM

Compound: C(=NNc1ccc2ccccc2n1)c1ccccn1
- IC50 (PEG-3 [1]; [3]): 1210 nM
- IC50 (PEG-3 [1]; [4]): 2110 nM
- IC50 (PEG-3 [2]): 1660 nM
- IC50 (Rat fibroblasts (CREF); mean of runs): 1440 nM
- IC50 (Rat fibroblasts (CREF); [3]): 1330 nM
- IC50 (Rat fibroblasts (CREF); [4]): 1550 nM

Compound: CCOc1ccc2c(ccc(/C=C/c3cc(C)c4cccnc4c3O)[n+]2C)c1
- IC50 (PEG-3 [1]; [3]): 4300 nM
- IC50 (PEG-3 [1]; [4]): 5880 nM
- IC50 (PEG-3 [2]): 5090 nM
- IC50 (Rat fibroblasts (CREF); mean of runs): 11800 nM
- IC50 (Rat fibroblasts (CREF); [3]): 11900 nM
- IC50 (Rat fibroblasts (CREF); [4]): 11700 nM

Compound: Fc1ccc(-c2nnc(NC3=NCCCCC3)o2)cc1
- IC50 (PEG-3 [1]; [3]): 4110 nM
- IC50 (PEG-3 [1]; [4]): 4000 nM
- IC50 (PEG-3 [2]): 4060 nM
- IC50 (Rat fibroblasts (CREF); mean of runs): 3580 nM
- IC50 (Rat fibroblasts (CREF); [3]): 3940 nM
- IC50 (Rat fibroblasts (CREF); [4]): 3230 nM

Compound: CCOc1ccc2nc(NC(=O)c3ccccn3)sc2c1
- IC50 (PEG-3 [1]; [3]): 4390 nM
- IC50 (PEG-3 [1]; [4]): > 100000 nM
- IC50 (PEG-3 [2]): inactive
- IC50 (Rat fibroblasts (CREF); mean of runs): 3500 nM
- IC50 (Rat fibroblasts (CREF); [3]): 2810 nM
- IC50 (Rat fibroblasts (CREF); [4]): 4180 nM

Compound: Cc1cccc(CS(=O)(=O)c2ncc(Cl)c(C(=O)Nc3ccc(F)cc3)n2)c1
- IC50 (PEG-3 [1]; [3]): 6010 nM
- IC50 (PEG-3 [1]; [4]): 3440 nM
- IC50 (PEG-3 [2]): 4730 nM
- IC50 (Rat fibroblasts (CREF); mean of runs): 2020 nM
- IC50 (Rat fibroblasts (CREF); [3]): > 80000 nM
- IC50 (Rat fibroblasts (CREF); [4]): 2020 nM

Compound: Cc1cccc(/C=N/Nc2ccc3ccccc3n2)c1
- IC50 (PEG-3 [1]; [3]): 3780 nM
- IC50 (PEG-3 [1]; [4]): 4580 nM
- IC50 (PEG-3 [2]): 4180 nM
- IC50 (Rat fibroblasts (CREF); mean of runs): 1410 nM
- IC50 (Rat fibroblasts (CREF); [3]): 2440 nM
- IC50 (Rat fibroblasts (CREF); [4]): 370 nM

Now from value to molecule, other results behind:

- IC50 (PEG-3 [2]): 1240 nM
Compound: CCCCCN1C=CC(=C2C(=O)c3ccccc3C2=O)C=C1
- IC50 (PEG-3 [1]; [3]): 1080 nM
- IC50 (PEG-3 [1]; [4]): 1400 nM
- IC50 (Rat fibroblasts (CREF); mean of runs): 729 nM
- IC50 (Rat fibroblasts (CREF); [3]): 371 nM
- IC50 (Rat fibroblasts (CREF); [4]): 1090 nM

- IC50 (PEG-3 [2]): 1010 nM
Compound: Cc1ccc2nc(-c3ccccc3)cn2c1
- IC50 (PEG-3 [1]; [3]): 1020 nM
- IC50 (PEG-3 [1]; [4]): 1010 nM
- IC50 (Rat fibroblasts (CREF); mean of runs): 783 nM
- IC50 (Rat fibroblasts (CREF); [3]): 619 nM
- IC50 (Rat fibroblasts (CREF); [4]): 948 nM

- IC50 (PEG-3 [2]): 723 nM
Compound: O=c1c2ccccc2cnn1-c1nc2ccccc2[nH]1
- IC50 (PEG-3 [1]; [3]): 686 nM
- IC50 (PEG-3 [1]; [4]): 760 nM
- IC50 (Rat fibroblasts (CREF); mean of runs): 546 nM
- IC50 (Rat fibroblasts (CREF); [3]): 475 nM
- IC50 (Rat fibroblasts (CREF); [4]): 617 nM

- IC50 (PEG-3 [2]): 1270 nM
Compound: O=C(OCC(F)(F)F)c1cccc(COc2ccc3ccccc3c2)c1
- IC50 (PEG-3 [1]; [3]): 1140 nM
- IC50 (PEG-3 [1]; [4]): 1400 nM
- IC50 (Rat fibroblasts (CREF); mean of runs): 16100 nM
- IC50 (Rat fibroblasts (CREF); [3]): 14900 nM
- IC50 (Rat fibroblasts (CREF); [4]): 17300 nM

- IC50 (PEG-3 [2]): 573 nM
Compound: O=C(CN1C(=O)c2ccccc2S1(=O)=O)c1ccc2c(c1)OCCO2
- IC50 (PEG-3 [1]; [3]): 730 nM
- IC50 (PEG-3 [1]; [4]): 415 nM
- IC50 (Rat fibroblasts (CREF); mean of runs): 1610 nM
- IC50 (Rat fibroblasts (CREF); [3]): 1280 nM
- IC50 (Rat fibroblasts (CREF); [4]): 1940 nM

- IC50 (PEG-3 [2]): 636 nM
Compound: O=C(NCCc1ccccc1)c1ccc2c(c1)OCCO2
- IC50 (PEG-3 [1]; [3]): 646 nM
- IC50 (PEG-3 [1]; [4]): 625 nM
- IC50 (Rat fibroblasts (CREF); mean of runs): 1730 nM
- IC50 (Rat fibroblasts (CREF); [3]): 1360 nM
- IC50 (Rat fibroblasts (CREF); [4]): 2100 nM

- IC50 (PEG-3 [2]): 881 nM
Compound: O=C(NCCc1ccccc1F)c1ccc2c(c1)OCCO2
- IC50 (PEG-3 [1]; [3]): 1020 nM
- IC50 (PEG-3 [1]; [4]): 740 nM
- IC50 (Rat fibroblasts (CREF); mean of runs): 1180 nM
- IC50 (Rat fibroblasts (CREF); [3]): 1070 nM
- IC50 (Rat fibroblasts (CREF); [4]): 1300 nM
